Assay results taken from paper PMC6429183, “Identification of Compounds That Inhibit Estrogen-Related Receptor Alpha Signaling Using High-Throughput Screening Assays” (Molecules, 2019).
Structures can show the parent of a compound that is named as a salt. Where two headings read alike, the source gives them in different places.

Experiments:
[1] = tested on: IDH3α; experiment: qRT-PCR mRNA expression of ERR downstream gene IDH3α; type: cell-based; details: ERR reporter cells, vs GAPDH, DMSO = 0%
Description: (§1) Total RNA was isolated from treated ERR reporter cells using an RNeasy Mini Kit (Qiagen, Germantown, MD, USA), homogenized using a QIAshredder (Qiagen), and reverse transcribed with a High-Capacity RNA-to-cDNA™ Kit (ThermoFisher Scientific, Inc.) following the manufacturers’ instructions. Expression of ERRα, COX8α, IDH3α, PPARα, COX4I1, and cytochrome c genes was normalized against GAPDH. All primers were purchased from ThermoFisher Scientific, Inc. Real-time PCR assays were performed in 384-well plates on a QuantStudio 5 (Applied Biosystems, Foster City, CA, USA) with TaqMan™ Gene Expression Master Mix (ThermoFisher Scientific, Inc.). Induction values were calculated using the equation: Fold = 2^ΔΔCt, where ΔCt represents the differences in cycle threshold numbers between each of the target genes and GAPDH, and ΔΔCt represents the relative change in these differences between control and treatment groups. Experimental data are presented as a mean of triplicate determinations ± SD. Statistical comparisons were made by t-test, while the statistical significance was set at p values of <0.05 (light blue), <0.01 (medium blue), and <0.001 (dark blue).

[2] = tested on: cytochrome c; experiment: qRT-PCR mRNA expression of ERR downstream gene cytochrome c; type: cell-based; details: ERR reporter cells, vs GAPDH, DMSO = 0%
Description: as §1

[3] = tested on: ERR reporter HEK293 cells; experiment: CellTiter-Fluor cell viability assay multiplexed with ERR reporter assay; type: cell-based; details: for EC50: Homo sapiens, HEK293
Description: (§2) ERR or PGC/ERR reporter HEK293 cells suspended in culture medium without puromycin were dispensed at 2500 cells/5 μL/well in tissue culture–treated 1536-well white assay plates (Greiner Bio-One North America, Monroe, NC, USA) using a Thermo Scientific Multidrop Combi (ThermoFisher Scientific, Inc.). […] After the cells were incubated at 37 °C with 5% CO2 for 6 h, 23 nL of compounds or control, XTC790, was transferred into the assay plates using a Wako Pintool station (Wako Automation, San Diego, CA, USA). The assay plates were incubated at 37 °C for 18 h, followed by the addition of 5 μL ONE-Glo luciferase reagent (Promega, Madison, WI, USA) using a Flying Reagent Dispenser (Aurora Discovery, Carlsbad, CA, USA). After 30 min of incubation at room temperature, the luminescence intensity of the assay plates was quantified using a ViewLux plate reader (PerkinElmer, Shelton, CT, USA). The assays were performed three times for each compound concentration. These ERR and PGC/ERR reporter assays were multiplexed with the CellTiter-Fluor Cell Viability Assay (Promega), a fluorescence-based cell viability assay, to assess compound cytotoxicity.
The qHTS data were analyzed as described previously. […] The DMSO-only compound plates at the beginning and end of the compound plate stack were used to correct the data set by applying an in-house pattern correction algorithm. The half maximum inhibition values (IC50) for each compound and maximum response (efficacy) values were obtained by fitting the concentration-response curves of each compound to a four-parameter Hill equation [91]. […] For each reading, the activity outcome of a test compound was first categorized by the average curve rank from the triplicate runs and the reproducibility calls. The final activity outcome of each compound was based on the ERR antagonist readout activity and cell viability counter screen.

[4] = tested on: PGC/ERR reporter HEK293 cells; experiment: CellTiter-Fluor cell viability assay multiplexed with PGC/ERR reporter assay; type: cell-based; details: for EC50: Homo sapiens; for PGC/ERR-HEK293 Follow-Up Viability EC50: follow-up screen; for PGC/ERR-HEK293 Primary Viability EC50: primary qHTS
Description: as §2
The qHTS data were analyzed as described previously. Each titration point was normalized relative to the positive control compound (XCT790 = −100%) and DMSO-only wells (0%) according to the following equation: % Activity = [(Vcompound − VDMSO)/(VDMSO − Vpos)] × 100, where Vcompound denotes the compound well values, Vpos denotes the median value of the positive control wells, and VDMSO denotes the median values of the DMSO-only wells. The DMSO-only compound plates at the beginning and end of the compound plate stack were used to correct the data set by applying an in-house pattern correction algorithm. The half maximum inhibition values (IC50) for each compound and maximum response (efficacy) values were obtained by fitting the concentration-response curves of each compound to a four-parameter Hill equation [91]. Compounds were designated as Class 1–4 according to the type of concentration–response curve observed. For each reading, the activity outcome of a test compound was first categorized by the average curve rank from the triplicate runs and the reproducibility calls. The final activity outcome of each compound was based on the ERR antagonist readout activity and cell viability counter screen.

[5] = tested on: COX8α; experiment: qRT-PCR mRNA expression of ERR downstream gene COX8α; type: cell-based; details: ERR reporter cells, vs GAPDH, DMSO = 0%
Description: as §1

[6] = target: T1, ERRα with PGC-1α (PGC/ERR pathway) (Homo sapiens, UniProt P11474); experiment: PGC/ERR reporter (luciferase) qHTS assay, PGC/ERR-HEK293; details: for EC50: mean ± SD, triplicate; for PGC/ERR-HEK293 Follow-Up Efficacy: follow-up screen; for PGC/ERR-HEK293 Follow-Up Efficacy / PGC/ERR-HEK293 Primary Efficacy: negative = antagonism, positive = agonism; for PGC/ERR-HEK293 Primary Efficacy: primary qHTS
T1 sequence (P11474 1-423): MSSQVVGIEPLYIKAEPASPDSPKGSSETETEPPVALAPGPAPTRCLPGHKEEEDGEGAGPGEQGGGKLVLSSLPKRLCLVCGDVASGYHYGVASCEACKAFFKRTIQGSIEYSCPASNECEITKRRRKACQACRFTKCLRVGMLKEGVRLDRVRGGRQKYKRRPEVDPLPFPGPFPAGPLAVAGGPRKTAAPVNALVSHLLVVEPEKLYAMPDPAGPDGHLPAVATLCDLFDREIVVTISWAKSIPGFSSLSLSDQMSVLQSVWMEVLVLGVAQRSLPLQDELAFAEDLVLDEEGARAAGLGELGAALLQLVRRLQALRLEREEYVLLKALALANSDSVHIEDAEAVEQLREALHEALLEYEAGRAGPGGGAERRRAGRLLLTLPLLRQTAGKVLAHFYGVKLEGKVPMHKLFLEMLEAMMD
Description: (§3) The ERR reporter HEK293 cells were cultured in high glucose DMEM medium (ThermoFisher Scientific, Inc., Waltham, MA, USA) supplemented with 10% fetal bovine serum (FBS; ThermoFisher Scientific, Inc.), 4 mM of L-glutamine (ThermoFisher Scientific, Inc.), 1 mM of sodium pyruvate (ThermoFisher Scientific, Inc.), 100 U/mL of penicillin and 100 mg/mL of streptomycin (ThermoFisher Scientific, Inc.). PGC/ERR reporter HEK293 cells were cultured in the same medium as the ERR reporter HEK293 cells with an additional 1 μg/mL puromycin (ThermoFisher Scientific, Inc.) as the selection marker for PGC-1α expression.
(§4) The DMSO-only compound plates at the beginning and end of the compound plate stack were used to correct the data set by applying an in-house pattern correction algorithm [90]. The half maximum inhibition values (IC50) for each compound and maximum response (efficacy) values were obtained by fitting the concentration-response curves of each compound to a four-parameter Hill equation [91]. […] For each reading, the activity outcome of a test compound was first categorized by the average curve rank from the triplicate runs and the reproducibility calls. The final activity outcome of each compound was based on the ERR antagonist readout activity and cell viability counter screen.

[7] = target: T2, estrogen-related receptor alpha (ERRα) (Homo sapiens, UniProt P11474); experiment: ERR reporter (luciferase) antagonist qHTS assay, ERR-HEK293; details: for EC50: mean ± SD, triplicate; for ERR-HEK293 Follow-Up Efficacy: follow-up screen; for ERR-HEK293 Follow-Up Efficacy / ERR-HEK293 Primary Efficacy: relative to XCT790 = −100%; for ERR-HEK293 Primary Efficacy: primary qHTS, DMSO = 0%
T2 sequence (P11474 1-423): T1 sequence (P11474 1-423)
Description: as §3, §4

[8] = target: T2, estrogen-related receptor alpha (ERRα)
Description: as §3, §4

[9] = target: T1, ERRα with PGC-1α (PGC/ERR pathway)
Description: as §3, §4

[10] = follow-up screen, viability, read-out: ERR-HEK293 Follow-Up Viability EC50 (converted)
[11] = PGC/ERR-HEK293 Follow-Up EC50, follow-up screen
[12] = PGC/ERR-HEK293 Primary EC50, primary qHTS, 18 h
[13] = ERR-HEK293 Follow-Up EC50, follow-up (confirmation) screen
[14] = ERR-HEK293 Primary EC50, primary qHTS, 18 h, 15 concentrations
[15] = primary qHTS, viability counter screen

EC50 [6, 11] [µM] | EC50 [6, 12] [µM] | PGC/ERR-HEK293 Follow-Up Efficacy [6] [%] | PGC/ERR-HEK293 Primary Efficacy [6] [%] | EC50 [7, 13] [µM] | EC50 [7, 14] [µM] | ERR-HEK293 Follow-Up Efficacy [7] [%] | ERR-HEK293 Primary Efficacy [7] [%] | SMILES | EC50 [3, 10] [µM] | ERR-HEK293 Primary Viability EC50 [3, 15] | PGC/ERR-HEK293 Follow-Up Viability EC50 [4] | PGC/ERR-HEK293 Primary Viability EC50 [4] | further results
– | – | – | – | – | – | – | – | CO/N=C(/C1=NOCCO1)c1ccccc1Oc1ncnc(Oc2ccccc2Cl)c1F [Fluoxastrobin] | – | – | – | – | Percent inhibition of mRNA gene expression, IDH3α ([1]; 7 µM): 13.3 ± 2.44%; Percent inhibition of mRNA gene expression, Cytochrome C ([2]; 7 µM): 25.5 ± 7.81%
8.93 ± 4.01 | 6.13 ± 1.71 | −87.4 ± 20.8 | −77.3 ± 14.6 | 3.29 ± 2.27 | 3.16 ± 0.713 | −92.0 ± 16.0 | −88.4 ± 7.45 | COc1ccc2cc3[n+](cc2c1OC)CCc1cc2c(cc1-3)OCO2 [Berberine] | 12.7 | – | – | – | EC50 ([3]; primary qHTS, viability counter screen, read-out: ERR-HEK293 Primary Viability EC50 (converted)): 12.8 µM; EC50 ([4]; HEK293, follow-up screen, read-out: PGC/ERR-HEK293 Follow-Up Viability EC50 (converted)): 17.3 µM; EC50 ([4]; HEK293, primary qHTS, read-out: PGC/ERR-HEK293 Primary Viability EC50 (converted)): 17.3 µM; Percent inhibition of mRNA gene expression, COX8α ([5]; 20 µM): 5.15 ± 0.17%; Percent inhibition of mRNA gene expression, IDH3α ([1]; 20 µM): 15.1 ± 2.97%; Percent inhibition of mRNA gene expression, Cytochrome C ([2]; 20 µM): 46.2 ± 2.61%; activity in the ERR/PGC assay ([6]; in words): antagonism; activity in the ERR assay ([7]; in words): potent antagonists
– | – | – | – | – | – | – | – | Nc1ccc2cc3ccc(N)cc3nc2c1 [Proflavin hemisulfate] | – | – | – | – | Percent inhibition of mRNA gene expression, COX8α ([5]; 3 µM): 34.8 ± 26.7%; Percent inhibition of mRNA gene expression, IDH3α ([1]; 3 µM): 24.9 ± 20.6%; Percent inhibition of mRNA gene expression, Cytochrome C ([2]; 3 µM): 20.6 ± 8.69%
5.26 | 14.1 ± 1.15 | −78.8 ± 7.20 | −69.1 ± 5.82 | 0.722 ± 0.285 | 1.24 ± 0.0837 | −140 ± 24.4 | −127 ± 11.8 | CC[C@@]1(O)C(=O)OCc2c1cc1n(c2=O)Cc2cc3c(CN(C)C)c(O)ccc3nc2-1 [Topotecan hydrochloride] | – | Inactive | Inactive | Inactive | ERR-HEK293 Follow-Up Viability EC50 ([3]; follow-up screen, viability): Inactive; ERR-HEK293 Primary Efficacy ([7]; listed as topotecan): −127%

SMILES | EC50 [6, 11] [µM] | EC50 [6, 12] [µM] | PGC/ERR-HEK293 Follow-Up Efficacy [6] [%] | PGC/ERR-HEK293 Primary Efficacy [6] [%] | EC50 [7, 13] [µM] | EC50 [7, 14] [µM] | ERR-HEK293 Follow-Up Efficacy [7] [%] | ERR-HEK293 Primary Efficacy [7] [%] | EC50 [3, 10] [µM] | ERR-HEK293 Primary Viability EC50 [3, 15] | PGC/ERR-HEK293 Follow-Up Viability EC50 [4] | PGC/ERR-HEK293 Primary Viability EC50 [4] | further results
CO/C=C(/C(=O)OC)c1ccccc1COc1cccc(C(F)(F)F)n1 [Picoxystrobin] | 4.19 ± 2.97 | 2.79 ± 2.4 | – | – | 3.42 ± 0.393 | 0.807 ± 0.279 | – | – | 32.1 | Inactive | Inactive | Inactive | ERR-HEK293 Follow-Up Efficacy [8]: −86.7 ± 15.8%; ERR-HEK293 Primary Efficacy [8]: −83.9 ± 10.6%; PGC/ERR-HEK293 Follow-Up Efficacy [9]: −43.6 ± 14.2%; PGC/ERR-HEK293 Primary Efficacy [9]: −44.2 ± 4.37%
